The assay deals with MV-4-11 cells. Nature of the assay: Gene expression microarray analysis (Affymetrix PrimeView) and GSEA. The format is cell-based, human. Also noted: RFU PODN (11730768_x_at) / Fold change /veh PODN (11730768_x_at) / RFU LINC00158 (11744669_a_at) / Fold change /veh LINC00158 (11744669_a_at) / RFU DUSP10 (11751237_a_at) / Fold change /veh DUSP10 (11751237_a_at) / RFU ID3 (11757404_x_at) / Fold change /veh ID3 (11757404_x_at) / RFU PLEKHG5 (11737974_s_at) / Fold change /veh PLEKHG5 (11737974_s_at) / RFU LRRC4B (11730491_at) / Fold change /veh LRRC4B (11730491_at) / RFU GIMAP4 (11747438_a_at) / Fold change /veh GIMAP4 (11747438_a_at) / RFU KRT8 (11758183_x_at) / Fold change /veh KRT8 (11758183_x_at) / RFU CNN1 (11734310_a_at) / Fold change /veh CNN1 (11734310_a_at) / RFU VPS37D (11726825_at) / Fold change /veh VPS37D (11726825_at) / RFU C10orf10 (11716522_x_at) / Fold change /veh C10orf10 (11716522_x_at) / RFU KIR2DL2 /// KIR2DL4 /// KIR2DL5A /// KIR2DL5B /// KIR2DS1 /// KIR2DS2 /// KIR2DS3 /// KIR2DS4 /// KIR3DL3 /// KIR3DL3 /// KIR3DS1 (11738374_at) / Fold change /veh KIR2DL2 /// KIR2DL4 /// KIR2DL5A /// KIR2DL5B /// KIR2DS1 /// KIR2DS2 /// KIR2DS3 /// KIR2DS4 /// KIR3DL3 /// KIR3DL3 /// KIR3DS1 (11738374_at) / RFU C1QL1 (11718748_at) / Fold change /veh C1QL1 (11718748_at) / RFU TMPRSS4 (11747572_a_at) / Fold change /veh TMPRSS4 (11747572_a_at) / RFU HAMP (11756126_x_at) / Fold change /veh HAMP (11756126_x_at) / RFU RNFT2 (11725882_a_at) / Fold change /veh RNFT2 (11725882_a_at) / RFU NR4A2 (11747474_a_at) / Fold change /veh NR4A2 (11747474_a_at) / RFU ABCC12 (11746883_a_at) / Fold change /veh ABCC12 (11746883_a_at) / RFU TMEM136 (11760407_x_at) / Fold change /veh TMEM136 (11760407_x_at) / RFU CLDN22 /// WWC2 (11732394_at) / Fold change /veh CLDN22 /// WWC2 (11732394_at) / RFU HLA-DPB1 (11760878_x_at) / Fold change /veh HLA-DPB1 (11760878_x_at) / RFU SPINT1 (11716480_a_at) / Fold change /veh SPINT1 (11716480_a_at) / RFU GAP43 (11754022_s_at) / Fold change /veh GAP43 (11754022_s_at) / RFU A4GNT (11735810_at) / Fold change /veh A4GNT (11735810_at) / RFU PRB3 (11715151_x_at) / Fold change /veh PRB3 (11715151_x_at) / RFU TUBB4B (11761932_at) / Fold change /veh TUBB4B (11761932_at) / RFU CAPN14 (11732068_a_at) / Fold change /veh CAPN14 (11732068_a_at) / RFU TMCC2 (11721928_a_at) / Fold change /veh TMCC2 (11721928_a_at) / RFU IRGQ (11745062_a_at) / Fold change /veh IRGQ (11745062_a_at) / RFU FAM174B (11720279_a_at) / Fold change /veh FAM174B (11720279_a_at) / RFU TMPRSS4 (11748680_a_at) / Fold change /veh TMPRSS4 (11748680_a_at) / RFU FAM212B (11763350_a_at) / Fold change /veh FAM212B (11763350_a_at) / RFU PLEKHG5 (11743358_a_at) / Fold change /veh PLEKHG5 (11743358_a_at) / RFU ZSCAN30 (11745921_a_at) / Fold change /veh ZSCAN30 (11745921_a_at) / RFU CMKLR1 (11741424_a_at) / Fold change /veh CMKLR1 (11741424_a_at) / RFU LOC101060620 /// MAPK8IP1 (11723275_at) / Fold change /veh LOC101060620 /// MAPK8IP1 (11723275_at) / RFU SPTSSB (11747773_x_at) / Fold change /veh SPTSSB (11747773_x_at) / RFU PRSS12 (11739890_at) / Fold change /veh PRSS12 (11739890_at) / RFU BIN1 (11741810_x_at) / Fold change /veh BIN1 (11741810_x_at) / RFU WNT11 (11732464_a_at) / Fold change /veh WNT11 (11732464_a_at) / RFU C10orf10 (11716521_a_at) / Fold change /veh C10orf10 (11716521_a_at) / RFU C5orf56 (11738089_at) / Fold change /veh C5orf56 (11738089_at) / RFU CYB561 (11721691_x_at) / Fold change /veh CYB561 (11721691_x_at) / RFU ANKRD19P (11752326_a_at) / Fold change /veh ANKRD19P (11752326_a_at) / RFU OR2T12 /// OR2T33 /// OR2T8 (11738714_s_at) / Fold change /veh OR2T12 /// OR2T33 /// OR2T8 (11738714_s_at) / RFU VCAN (11748164_a_at) / Fold change /veh VCAN (11748164_a_at) / RFU JSRP1 (11732532_at) / Fold change /veh JSRP1 (11732532_at) / RFU KRTAP10-11 (11738290_x_at) / Fold change /veh KRTAP10-11 (11738290_x_at) / RFU MYO3A (11730013_a_at) / Fold change /veh MYO3A (11730013_a_at) / RFU EBF3 (11725865_a_at) / Fold change /veh EBF3 (11725865_a_at) / RFU CAMK2N1 (11719241_x_at) / Fold change /veh CAMK2N1 (11719241_x_at) / RFU C5orf56 (11738088_a_at) / Fold change /veh C5orf56 (11738088_a_at) / RFU OLFML3 (11715873_a_at) / Fold change /veh OLFML3 (11715873_a_at) / RFU LOC100653217 /// NTM (11731650_a_at) / Fold change /veh LOC100653217 /// NTM (11731650_a_at) / RFU MAPK11 (11762145_a_at) / Fold change /veh MAPK11 (11762145_a_at) / RFU FIZ1 (11724087_x_at) / Fold change /veh FIZ1 (11724087_x_at) / RFU OASL (11726364_x_at) / Fold change /veh OASL (11726364_x_at) / RFU SOX15 (11748057_x_at) / Fold change /veh SOX15 (11748057_x_at) / RFU CD79A (11719716_a_at) / Fold change /veh CD79A (11719716_a_at) / RFU HIST1H1D (11736915_at) / Fold change /veh HIST1H1D (11736915_at) / RFU CASKIN2 (11723855_a_at) / Fold change /veh CASKIN2 (11723855_a_at) / RFU LOC730098 (11760151_x_at) / Fold change /veh LOC730098 (11760151_x_at) / RFU OR4N2 (11742367_at) / Fold change /veh OR4N2 (11742367_at) / RFU PRRT2 (11749266_a_at) / Fold change /veh PRRT2 (11749266_a_at) / RFU SNX32 (11753110_a_at) / Fold change /veh SNX32 (11753110_a_at) / RFU CDHR5 (11726645_a_at) / Fold change /veh CDHR5 (11726645_a_at) / RFU RCAN1 (11760418_a_at) / Fold change /veh RCAN1 (11760418_a_at) / RFU FAM167A (11723789_a_at) / Fold change /veh FAM167A (11723789_a_at) / RFU FAM26E (11764081_at) / Fold change /veh FAM26E (11764081_at) / RFU ISYNA1 (11749810_s_at) / Fold change /veh ISYNA1 (11749810_s_at) / RFU ACY1 (11761880_at) / Fold change /veh ACY1 (11761880_at) / RFU 11764098_at / Fold change /veh 11764098_at / RFU SAMD14 (11745864_x_at) / Fold change /veh SAMD14 (11745864_x_at) / RFU NPB (11741838_a_at) / Fold change /veh NPB (11741838_a_at) / RFU TMPRSS6 (11731388_a_at) / Fold change /veh TMPRSS6 (11731388_a_at) / RFU KRTAP10-2 (11738614_at) / Fold change /veh KRTAP10-2 (11738614_at) / RFU ARHGAP8 /// PRR5-ARHGAP8 (11727945_x_at) / Fold change /veh ARHGAP8 /// PRR5-ARHGAP8 (11727945_x_at) / RFU KRTAP5-7 /// NADSYN1 (11734609_at) / Fold change /veh KRTAP5-7 /// NADSYN1 (11734609_at) / RFU RASL12 (11751679_a_at) / Fold change /veh RASL12 (11751679_a_at) / RFU CDKN2B (11736163_a_at) / Fold change /veh CDKN2B (11736163_a_at) / RFU PRF1 (11729649_at) / Fold change /veh PRF1 (11729649_at) / RFU, ZNF638 /// ZNF638-IT1 / Fold change vs veh, ZNF638 /// ZNF638-IT1 / RFU, PANK3 / Fold change vs veh, PANK3 / RFU, SH3YL1 / Fold change vs veh, SH3YL1 / RFU, ZEB2 / Fold change vs veh, ZEB2 / RFU, NRIP1 / Fold change vs veh, NRIP1 / RFU, PTTG1IP / Fold change vs veh, PTTG1IP / RFU, CAPN2 / Fold change vs veh, CAPN2 / RFU, MED14 / Fold change vs veh, MED14 / RFU, SNORA58 / Fold change vs veh, SNORA58 / RFU, C1orf63 / Fold change vs veh, C1orf63 / RFU, LRRFIP1 / Fold change vs veh, LRRFIP1 / RFU, NDUFAF7 / Fold change vs veh, NDUFAF7 / RFU, SLC12A2 / Fold change vs veh, SLC12A2 / RFU, IBTK / Fold change vs veh, IBTK / RFU, ESF1 / Fold change vs veh, ESF1 / Fold change vs veh, TMEM50B / RFU, TAOK1 / Fold change vs veh, TAOK1 / RFU, ACBD3 / Fold change vs veh, ACBD3 / RFU, TMA16 / Fold change vs veh, TMA16 / RFU, RWDD3 / Fold change vs veh, RWDD3 / RFU, BCAT1 / Fold change vs veh, BCAT1 / RFU, EDEM3 / Fold change vs veh, EDEM3 / RFU, TMEM33 / Fold change vs veh, TMEM33 / RFU, WDR75 / Fold change vs veh, WDR75 / RFU, AHCTF1 / Fold change vs veh, AHCTF1 / RFU, TFRC / Fold change vs veh, TFRC / RFU, ZDHHC17 / Fold change vs veh, ZDHHC17 / RFU, NOM1 / Fold change vs veh, NOM1 / RFU, ARL8B / Fold change vs veh, ARL8B / RFU, ZBTB11 / Fold change vs veh, ZBTB11 / RFU, TAMM41 / Fold change vs veh, TAMM41 / RFU, KIAA1704 /// LOC100996395 / Fold change vs veh, KIAA1704 /// LOC100996395 / RFU, ING1 / Fold change vs veh, ING1 / RFU, TRMT61B / Fold change vs veh, TRMT61B / RFU, FUBP3 / Fold change vs veh, FUBP3 / RFU, TP53 / Fold change vs veh, TP53 / RFU, TNKS2 / Fold change vs veh, TNKS2 / RFU, ZFP14 / Fold change vs veh, ZFP14 / RFU, ACTR2 / Fold change vs veh, ACTR2 / RFU, PPP3R1 / Fold change vs veh, PPP3R1 / RFU, PIK3R1 / Fold change vs veh, PIK3R1 / RFU, HNRNPA1 / Fold change vs veh, HNRNPA1 / RFU, RNF170 / Fold change vs veh, RNF170 / RFU, ZNF28 / Fold change vs veh, ZNF28 / RFU, RNGTT / Fold change vs veh, RNGTT / RFU, OGT / Fold change vs veh, OGT / RFU, BRD1 / Fold change vs veh, BRD1 / RFU, MARS / Fold change vs veh, MARS / RFU, ZNF655 / Fold change vs veh, ZNF655 / RFU, FAHD1 / Fold change vs veh, FAHD1 / RFU, BDP1 / Fold change vs veh, BDP1 / RFU, LRRCC1 / Fold change vs veh, LRRCC1 / RFU, ARID1A / Fold change vs veh, ARID1A / RFU, ZNF146 / Fold change vs veh, ZNF146 / RFU, ZNF330 / Fold change vs veh, ZNF330 / RFU, GPN3 / Fold change vs veh, GPN3 / RFU, C9orf123 / Fold change vs veh, C9orf123 / RFU, N4BP2L2 / Fold change vs veh, N4BP2L2 / RFU, ARFIP1 / Fold change vs veh, ARFIP1 / RFU, FAM179B / Fold change vs veh, FAM179B / RFU, BCL10 / Fold change vs veh, BCL10 / RFU, UHRF1BP1L / Fold change vs veh, UHRF1BP1L / RFU, BET1 / Fold change vs veh, BET1 / RFU, CNOT2 / Fold change vs veh, CNOT2 / RFU, ZNF268 / Fold change vs veh, ZNF268 / Fold change vs veh, ZNF507 / RFU, DGCR2 / Fold change vs veh, DGCR2 / RFU, WDSUB1 / Fold change vs veh, WDSUB1 / Fold change vs veh, HSP90B1 /// MIR3652 / RFU, ADSS / Fold change vs veh, ADSS / RFU, GK / Fold change vs veh, GK / RFU, ZNF148 / Fold change vs veh, ZNF148 / RFU, TAF9 / Fold change vs veh, TAF9 / RFU, SLC1A5 / Fold change vs veh, SLC1A5 / RFU, SLMO2 / Fold change vs veh, SLMO2 / RFU, ABCC4 / Fold change vs veh, ABCC4 / RFU, LOC101060439 /// RAP1B / Fold change vs veh, LOC101060439 /// RAP1B / RFU, RFX7 / Fold change vs veh, RFX7 / RFU, GTPBP10 / Fold change vs veh, GTPBP10 / RFU, CNEP1R1 / Fold change vs veh, CNEP1R1 / RFU, BIVM-ERCC5 /// ERCC5 / Fold change vs veh, BIVM-ERCC5 /// ERCC5 / RFU, ILF3 / Fold change vs veh, ILF3 / RFU 11762660_at / Fold change /veh 11762660_at / RFU VCAN (11757783_s_at) / Fold change /veh VCAN (11757783_s_at) / RFU DDX43 (11728927_at) / Fold change /veh DDX43 (11728927_at) / RFU KRT8 (11758188_x_at) / Fold change /veh KRT8 (11758188_x_at) / RFU NKD1 (11759106_at) / Fold change /veh NKD1 (11759106_at) / RFU SRD5A1 (11742802_a_at) / Fold change /veh SRD5A1 (11742802_a_at) / RFU TPSAB1 /// TPSB2 (11721975_s_at) / Fold change /veh TPSAB1 /// TPSB2 (11721975_s_at) / RFU GSTM3 (11746129_a_at) / Fold change /veh GSTM3 (11746129_a_at) / RFU IL23R (11737362_x_at) / Fold change /veh IL23R (11737362_x_at) / RFU TMEM51 (11727254_a_at) / Fold change /veh TMEM51 (11727254_a_at) / RFU PIWIL2 (11732686_x_at) / Fold change /veh PIWIL2 (11732686_x_at) / RFU ORM1 (11744905_x_at) / Fold change /veh ORM1 (11744905_x_at) / RFU CCDC152 (11743942_at) / Fold change /veh CCDC152 (11743942_at) / RFU ECM1 (11717891_a_at) / Fold change /veh ECM1 (11717891_a_at) / RFU IL23R (11748794_a_at) / Fold change /veh IL23R (11748794_a_at) / RFU TNFAIP8L3 (11732012_x_at) / Fold change /veh TNFAIP8L3 (11732012_x_at) / RFU MBOAT4 (11741988_at) / Fold change /veh MBOAT4 (11741988_at) / RFU 11764193_at / Fold change /veh 11764193_at / RFU TMEM53 (11763286_at) / Fold change /veh TMEM53 (11763286_at) / RFU MAGEB2 (11727129_at) / Fold change /veh MAGEB2 (11727129_at) / RFU TMEM200A (11744735_a_at) / Fold change /veh TMEM200A (11744735_a_at) / RFU CCDC152 (11751479_a_at) / Fold change /veh CCDC152 (11751479_a_at) / RFU FAM211A (11726209_a_at) / Fold change /veh FAM211A (11726209_a_at) / RFU RGS16 (11746705_a_at) / Fold change /veh RGS16 (11746705_a_at) / RFU VCAN (11755009_s_at) / Fold change /veh VCAN (11755009_s_at) / RFU RHOB (11743442_s_at) / Fold change /veh RHOB (11743442_s_at) / RFU RGS16 (11720943_a_at) / Fold change /veh RGS16 (11720943_a_at) / RFU RGS16 (11720944_at) / Fold change /veh RGS16 (11720944_at) / RFU, VPS4B / Fold change vs veh, VPS4B / RFU, CREB1 / Fold change vs veh, CREB1 / RFU, DNAJC13 / Fold change vs veh, DNAJC13 / RFU, GNAQ / Fold change vs veh, GNAQ / RFU, CDK5R1 / Fold change vs veh, CDK5R1 / RFU, ZRANB3 / Fold change vs veh, ZRANB3 / RFU, CUL4A / Fold change vs veh, CUL4A / RFU, CCNY / Fold change vs veh, CCNY / RFU, UFL1 / Fold change vs veh, UFL1 / RFU, COG3 / Fold change vs veh, COG3 / RFU, DIAPH2 / Fold change vs veh, DIAPH2 / RFU, SKA2 / Fold change vs veh, SKA2 / RFU, AFF3 / Fold change vs veh, AFF3 / RFU, LMF1 / Fold change vs veh, LMF1 / RFU, IPO11 / Fold change vs veh, IPO11 / RFU, DFFB / Fold change vs veh, DFFB / RFU, FOXP1 / Fold change vs veh, FOXP1 / RFU, CARD8 / Fold change vs veh, CARD8 / RFU, STRN3 / Fold change vs veh, STRN3 / RFU, ADK / Fold change vs veh, ADK / RFU, RASSF2 / Fold change vs veh, RASSF2 / RFU, WIPF1 / Fold change vs veh, WIPF1 / RFU, LARP1B / Fold change vs veh, LARP1B / RFU, RASA1 / Fold change vs veh, RASA1 / RFU, RB1 / Fold change vs veh, RB1 / RFU, PPFIA1 / Fold change vs veh, PPFIA1 / RFU, MAT2A / Fold change vs veh, MAT2A / RFU, CCT5 / Fold change vs veh, CCT5 / RFU, WDR92 / Fold change vs veh, WDR92 / RFU, CUX1 / Fold change vs veh, CUX1 / RFU, TTC7A / Fold change vs veh, TTC7A / RFU, TMEM135 / Fold change vs veh, TMEM135 / RFU, DEPTOR / Fold change vs veh, DEPTOR / RFU, CPM / Fold change vs veh, CPM / RFU, DNAJB6 / Fold change vs veh, DNAJB6 / RFU, CACNA2D3 / Fold change vs veh, CACNA2D3 / RFU, DTX4 / Fold change vs veh, DTX4 / RFU, TFCP2 / Fold change vs veh, TFCP2 / RFU, GMCL1 /// GMCL1P1 / Fold change vs veh, GMCL1 /// GMCL1P1 / RFU, AEBP2 / Fold change vs veh, AEBP2 / RFU, SNHG1 /// SNORD22 /// SNORD25 /// SNORD26 /// SNORD27 /// SNORD28 /// SNORD29 /// SNORD31 / Fold change vs veh, SNHG1 /// SNORD22 /// SNORD25 /// SNORD26 /// SNORD27 /// SNORD28 /// SNORD29 /// SNORD31 / Fold change (Aza/veh), C12orf56 (ProbeSet 11735607_a_at) / Fold change (ACY-1035/veh), C12orf56 (ProbeSet 11735607_a_at) / Fold change (Aza/veh), FGFR1OP (ProbeSet 11751329_s_at) / Fold change (ACY-1035/veh), FGFR1OP (ProbeSet 11751329_s_at) / Fold change (Aza/veh), VPS36 (ProbeSet 11739960_a_at) / Fold change (ACY-1035/veh), VPS36 (ProbeSet 11739960_a_at) / RFU SYPL1 (11715823_x_at) / Fold change /veh SYPL1 (11715823_x_at) / RFU IGFBP7 (11715501_s_at) / Fold change /veh IGFBP7 (11715501_s_at) / RFU REEP3 (11722064_at) / Fold change /veh REEP3 (11722064_at) / RFU IGLL1 (11728026_x_at) / Fold change /veh IGLL1 (11728026_x_at): dose or concentration left out as unconfirmed. Conditions: ProbeSet 11727958_a_at; LIST B.

Here are results for one compound from PMC5218480 (PLoS ONE, 2017).

Molecules are shown by their SMILES.

As to `Nc1ccc(-c2cccs2)cc1NC(=O)c1ccc2c(c1)cc(C1CC1)n2CCN1CCOCC1` [ACY-1035], the “Fold change vs veh, ING1” value turned out to be 1.02.
